Results from article PMC7738871, “Covalent modification of Keap1 at Cys77 and Cys434 by pubescenoside a suppresses oxidative stress-induced NLRP3 inflammasome activation in myocardial ischemia-reperfusion injury” (Theranostics, 2021).

How the values were obtained:
Keap1 C23S = biological target: T1, Keap1 C23S (Homo sapiens, UniProt Q14145, C23S); experiment: ITC titration of PBA with Keap1-C23S; assay type: binding; settings: 25 ℃
T1 construct: His (N); made in house; host or cells: E. coli BL21 (DE3)
Procedure: (§1) The Keap1 was amplified by PCR using a human cDNA library, and was subcloned into the vector pET28-TEV, which contained one tobacco etch virus (TEV) protease cleavage site at the upstream multiple cloning site. The protein was expressed in E. coli BL21 (DE3) cells and incubated at 37 °C until the OD600 value reached 0.6, using 0.2 mM isopropyl β-D-1-thiogalactopyranoside (IPTG) overnight induction at 18 °C. The cells were isolated by centrifugation, resuspended in ice-cold lysis buffer and lysed by cryogenic overpressure cell breaker at 1,200 psi. The lysates were centrifuged for 60 min at 14,000 rpm to obtain the supernatant. Gravity flow purification of Keap1 protein was obtained at room temperature using 1 mL of Ni-NTA and eluted in buffer containing 250 mM imidazole, followed by 1 mL of HiTrap QHP for the second step purification. The final protein was purified and validated by Superdex 200 10/300GL resin.
(§2) The mutant plasmid DNA was obtained by PCR. The PCR products were cleaved by DpnI restriction enzymes. The restriction endonuclease-cleaved mixture was subsequently transformed into E. coli DH5α. Colonies were evaluated by colony PCR and sequenced. The mutant plasmid was transformed into E. coli BL21 (DE3) after successful sequencing. The steps for expression and purification of all recombinants were described above.
(§3) Isothermal calorimetry (ITC) titration experiments were performed at 25 °C. WT Keap1, Keap1 mutants and PBA were dissolved in binding buffer (40 mM Tris-HCl pH 8.0, 250 mM NaCl). In a typical experiment, 60 μL of PBA (1 mM) was injected 19 times at 2-min intervals from a stirring syringe into the sample cell containing 300 μL of WT protein or mutants (30 μM). The first injection was 0.4 μL of PBA, and the subsequent 18 injections were 2 μL each time. The site-binding models were determined by using MicroCal Origin software.

Keap1 C434S = biological target: T2, Keap1 C434S (Homo sapiens, UniProt Q14145, C434S); experiment: ITC titration of PBA with Keap1-C434S; assay type: binding; settings: 25 ℃
T2 construct: His (N); made in house; host or cells: E. coli BL21 (DE3)
Procedure: as §1, §2, §3

H9c2 cells = experiment: MTT cytotoxicity, H9c2; assay type: cell-based, rat; settings: under 240 μM, 48 h
Procedure: Cell viability was determined by MTT assays. PBA was prepared to a stock solution dissolved in dimethyl sulfoxide (DMSO). RAW264.7, H9c2 cells, primary mouse cardiomyocytes were treated with different doses of PBA, and DMSO only as control for 48 h for the toxicity. In addition, H9c2 cells or primary mouse cardiomyocytes were treated with the indicated doses of PBA, diazoxide as positive control, DMSO only as control, then cultured with or without OGD/R treatment. At the end of the experiments, MTT was added into each well at the concentration of 0.5 mg/ml, and incubated at 37 °C for 4 h. After removal of the supernatant, 150 μL of DMSO was added to solubilize the formazan products. And the solution was measured at the absorbance of 490 nm by a spectrophotometer (Thermo Fisher Scientific, MA, USA). The results of the MTT assay in all groups were normalized to the control group with DMSO only treatment.

NLRP3 inflammasome = experiment: OGD/R-induced NLRP3 inflammasome activation in H9c2; assay type: cell-based, rat; settings: H9c2, OGD 6 h, reperfusion 18 h, dose-dependent
Procedure: For OGD/R treatment, H9c2 cells were washed twice with phosphate buffered saline (PBS). The medium was changed to glucose and serum free DMEM, and H9c2 cells were incubated in an incubator with 95% N2 and 5% CO2 at 37 °C. After 6 h, the medium was replaced with DMEM containing 10% FBS and 1% PS. Then H9c2 cells were returned to a normal incubator with 5% CO2 balanced with air at 37 °C for the indicated time.
Total protein was isolated from H9c2 cells, primary mouse cardiomyocytes, RAW264.7 cells and heart tissue using 1X RIPA buffer containing phosphatase and proteinase inhibitors at 4 °C. After measurement of the concentration, the cell lysates were separated by sodium dodecyl sulphate polyacrylamide gel electrophoresis (SDS-PAGE) and transferred to polyvinylidene fluoride (PVDF) membranes. […] After the membranes was washed by TBST buffer for three times, they were incubated with horseradish peroxidase (HRP)-conjugated secondary mouse or rabbit antibodies (1:3,000 dilution) at room temperature (RT) for 1.5 h and then detected by SuperEnhanced chemiluminescence (ECL) reaction reagents (GBCBIO Technologies Inc., Guangzhou, Guangdong, China). […] After letting the membranes stand for 1-2 min, the bands of the respective proteins were detected with the exposure time of 10 ~60 s.

ROS in H9c2 cells = experiment: Intracellular ROS (DCFH-DA), OGD/R H9c2; assay type: cell-based, rat
Procedure: The fluorescent probe DCFH-DA was used to measure intracellular ROS levels. RAW264.7 cells were treated with 100 μg/mL LPS plus ATP as mentioned above. H9c2 cells underwent OGD/R. After the appropriate treatment, the cells were incubated with DCFH-DA at a concentration of 10 μM for 30 min. The cells were washed with PBS three times. A fluorescence microscope and microplate reader were used to measure the level of DCFH-DA fluorescence at the excitation wavelength of 488 nm and the emission wavelength of 525 nm.

T2 sequence (Q14145 whole entry C434S): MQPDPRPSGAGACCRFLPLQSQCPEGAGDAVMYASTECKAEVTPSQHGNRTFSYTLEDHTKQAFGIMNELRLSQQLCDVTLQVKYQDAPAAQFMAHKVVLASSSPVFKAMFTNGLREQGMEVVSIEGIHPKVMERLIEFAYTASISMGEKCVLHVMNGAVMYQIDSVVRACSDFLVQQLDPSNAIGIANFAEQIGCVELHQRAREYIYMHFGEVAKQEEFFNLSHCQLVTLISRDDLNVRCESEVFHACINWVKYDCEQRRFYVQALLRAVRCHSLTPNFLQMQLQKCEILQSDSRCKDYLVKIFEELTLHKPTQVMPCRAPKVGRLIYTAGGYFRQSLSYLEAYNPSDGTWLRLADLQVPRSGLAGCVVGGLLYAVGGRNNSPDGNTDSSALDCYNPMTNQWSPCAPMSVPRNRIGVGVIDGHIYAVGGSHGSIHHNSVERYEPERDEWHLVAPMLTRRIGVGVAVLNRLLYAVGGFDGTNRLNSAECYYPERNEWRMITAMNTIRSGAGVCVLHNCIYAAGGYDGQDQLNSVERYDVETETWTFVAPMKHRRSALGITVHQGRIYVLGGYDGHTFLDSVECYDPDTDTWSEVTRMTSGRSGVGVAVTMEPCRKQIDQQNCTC
T1 sequence (Q14145 whole entry C23S): as the sequence (Q14145 whole entry C434S) above, with C23S, S434C counted along it

Kd (Keap1 C23S): 9.78 µM
T△S (Keap1 C23S): 3.22 ± 0.00 kcal/mol
△G (Keap1 C23S): -6.84 ± 0.00 kcal/mol
△H (Keap1 C23S): -3.62 ± 0.241 kcal/mol
Kd (Keap1 C434S): 13.9 µM
T△S (Keap1 C434S): 1.87 ± 0.00 kcal/mol
△G (Keap1 C434S): -6.63 ± 0.00 kcal/mol
△H (Keap1 C434S): -4.76 ± 0.367 kcal/mol
Compound: C=C(COC(=O)C=Cc1ccc(O)c(O)c1)C(O)COC1OC(CO)C(O)C(O)C1O (centres unmarked) [PBA, pubescenoside A]
cell toxicity (MTT) (H9c2 cells): did not exhibit any cell toxicity
OGD/R-induced inflammasome activation (NLRP3, cleaved-caspase1, mature IL-1β) (NLRP3 inflammasome): substantially inhibited
OGD/R-induced ROS (ROS in H9c2 cells): significantly suppress
